Assay results taken from patent US20130190289A1, “COMPOUNDS AND METHODS FOR THE TREATMENT OR PREVENTION OF FLAVIVIRUS INFECTIONS” (priority 2010, published 2013).
Read-outs that look alike come from different tables or passages of the source.

Assays:
[1] = [3H]Thymidine incorporation assay (cell toxicity); conditions: human
[2] = system: HCV replicon (genotype 1b) in Huh7 cell line ET; assay: microbe, parasite or virus in culture; format: cell-based, HCV genotype 1b; conditions: Hepatitis C virus
[3] = Huh-7, read-out: HCV-Replicon-(Luci-ET) 1b_IC50
[4] = Huh-7, 96 h, read-out: HCV-Replicon (Luci-ET)-1b_IC50

Structure (SMILES) | CC50 at 72 h [1] | IC50 [2, 3] | IC50 [2, 4]
CC(C(=O)N(C)C)N(c1cc(C#CC(C)(C)C)sc1C(=O)O)C(=O)[C@H]1CC[C@H](C)CC1 (relative stereo) [Compound 7, 5-(3,3-Dimethyl-but-1-ynyl)-3-[(1-dimethylcarbamoyl-ethyl)-(trans-4-methyl-cyclohexanecarbonyl)-amino]-thiophene-2-carboxylic acid] | 10 to 100 µM | < 100 nM | –
CC(C)[C@@H](C(=O)N(C)C)N(c1cc(C#CC(C)(C)C)sc1C(=O)O)C(=O)[C@H]1CC[C@H](C)CC1 [Compound 86, 5-(3,3-Dimethylbut-1-ynyl)-3-[[(1S)-1-(dimethylcarbamoyl)-2-methyl-propyl]-(trans-4-methylcyclohexanecarbonyl)amino]thiophene-2-carboxylic acid] | 10 to 100 µM | < 100 nM | –
CC(CC(=O)N1CCCC1)N(c1cc(C#CC(C)(C)C)sc1C(=O)O)C(=O)[C@H]1CC[C@H](C)CC1 (relative stereo) [Compound 101, 5-(3,3-dimethylbut-1-yn-1-yl)-3-((trans)-4-methyl-N-(4-oxo-4-(pyrrolidin-1-yl)butan-2-yl)cyclohexanecarboxamido)thiophene-2-carboxylic acid] | 10 to 100 µM | < 100 nM | –
CC1(C#Cc2cc(N(CC(=O)N3CCOCC3)C(=O)[C@H]3CC[C@H](C)CC3)c(C(=O)O)s2)CC1 [Compound 144, 3-[(trans-4-methylcyclohexanecarbonyl)-(2-morpholino-2-oxo-ethyl)amino]-5-[2-(1-methylcyclopropyl)ethynyl]thiophene-2-carboxylic acid] | > 100 µM | – | < 100 nM
COC[C@@H](C(=O)N1CCOCC1)N(C(=O)C1CCCCC1)c1cc(C#CC(C)(C)C)sc1C(=O)O [Compound 24, 3-[Cyclohexanecarbonyl-[(1S)-1-(methoxymethyl)-2-morpholino-2-oxo-ethyl]amino]-5-(3,3-dimethylbut-1-ynyl)thiophene-2-carboxylic acid] | > 100 µM | < 100 nM | –
CO[C@H](C)[C@H](C(=O)N1CCOCC1)N(c1cc(C#CC(C)(C)C)sc1C(=O)O)C(=O)[C@H]1CC[C@H](C)CC1 [Compound 74, 5-(3,3-dimethylbut-1-ynyl)-3-[[(1R,2R)-2-methoxy-1-(morpholine-4-carbonyl)propyl]-(trans-4-methylcyclohexanecarbonyl)amino]thiophene-2-carboxylic acid] | > 100 µM | < 100 nM | –
C[C@@H](C(=O)N1CC[C@H](CO)C1)N(c1cc(C#CC(C)(C)C)sc1C(=O)O)C(=O)[C@H]1CC[C@H](C)CC1 [Compound 39, 5-(3,3-Dimethylbut-1-ynyl)-3-[[(1S)-2-[(3S)-3-(hydroxymethyl)pyrrolidin-1-yl]-1-methyl-2-oxo-ethyl]-(trans-4-methylcyclohexanecarbonyl)amino]thiophene-2-carboxylic acid] | > 100 µM | < 100 nM | –
CCOC[C@@H](C(=O)N(C)C)N(c1cc(C#CC(C)(C)C)sc1C(=O)O)C(=O)[C@H]1CC[C@H](C)CC1 [Compound 88, 3-[[(1S)-2-(Dimethylamino)-1-(ethoxymethyl)-2-oxo-ethyl]-(trans-4-methylcyclohexanecarbonyl)amino]-5-(3,3-dimethylbut-1-ynyl)thiophene-2-carboxylic acid] | > 100 µM | < 100 nM | –
CCOC[C@@H](C(=O)N1CCOCC1)N(c1cc(C#CC(C)(C)C)sc1C(=O)O)C(=O)[C@H]1CC[C@H](C)CC1 [Compound 87, 5-(3,3-Dimethylbut-1-ynyl)-3-[[(1S)-1-(ethoxymethyl)-2-morpholino-2-oxo-ethyl]-(trans-4-methylcyclohexanecarbonyl)amino]thiophene-2-carboxylic acid] | > 100 µM | < 100 nM | –
CC(C)N1CC[C@@H](N(c2cc(C#CC(C)(C)C)sc2C(=O)O)C(=O)[C@H]2CC[C@H](C)CC2)C1=O [Compound 141, 5-(3,3-dimethylbut-1-ynyl)-3-[[(3R)-1-isopropyl-2-oxo-pyrrolidin-3-yl]-(trans-4-methylcyclohexanecarbonyl)amino]thiophene-2-carboxylic acid] | > 100 µM | – | < 100 nM
COC1CN(C(=O)[C@H](C)N(c2cc(C#CC(C)(C)C)sc2C(=O)O)C(=O)[C@H]2CC[C@H](C)CC2)C1 [Compound 52, 5-(3,3-Dimethylbut-1-ynyl)-3-[[(1S)-2-(3-methoxyazetidin-1-yl)-1-methyl-2-oxo-ethyl]-(trans-4-methylcyclohexanecarbonyl)amino]thiophene-2-carboxylic acid] | > 100 µM | < 100 nM | –
CO[C@@H](C)[C@H](C(=O)N1CCOCC1)N(c1cc(C#CC(C)(C)C)sc1C(=O)O)C(=O)[C@H]1CC[C@H](C)CC1 [Compound 72, 5-(3,3-dimethylbut-1-ynyl)-3-[[(1R,2S)-2-methoxy-1-(morpholine-4-carbonyl)propyl]-(trans-4-methylcyclohexanecarbonyl)amino]thiophene-2-carboxylic acid] | > 100 µM | < 100 nM | –
CO[C@H](C)[C@@H](C(=O)N1CCOCC1)N(c1cc(C#CC(C)(C)C)sc1C(=O)O)C(=O)[C@H]1CC[C@H](C)CC1 [Compound 58, 5-(3,3-Dimethylbut-1-ynyl)-3-[[(1S,2R)-2-methoxy-1-(morpholine-4-carbonyl)propyl]-(trans-4-methylcyclohexanecarbonyl)amino]thiophene-2-carboxylic acid] | > 100 µM | < 100 nM | –
COC1CN(C(=O)C[C@H](C)N(c2cc(C#CC(C)(C)C)sc2C(=O)O)C(=O)[C@H]2CC[C@H](C)CC2)C1 [Compound 116, 5-(3,3-Dimethylbut-1-ynyl)-3-[[(1S)-3-(3-methoxyazetidin-1-yl)-1-methyl-3-oxo-propyl]-(trans-4-methylcyclohexanecarbonyl)amino]thiophene-2-carboxylic acid] | > 100 µM | < 100 nM | –
CCNC(=O)C[C@H](C)N(c1cc(C#CC(C)(C)C)sc1C(=O)O)C(=O)[C@H]1CC[C@H](C)CC1 [Compound 111, 5-(3,3-Dimethylbut-1-ynyl)-3-[[(1S)-3-(ethylamino)-1-methyl-3-oxo-propyl]-(trans-4-methylcyclohexanecarbonyl)amino]thiophene-2-carboxylic acid] | > 100 µM | < 100 nM | –
CC(C)C#Cc1cc(N(CC(=O)N2CCNCC2)C(=O)C2CCC(C)CC2)c(C(=O)O)s1 (centres unmarked) [Compound 69] | > 100 µM | < 100 nM | –
C[C@H](CN(c1cc(C#CC(C)(C)C)sc1C(=O)O)C(=O)[C@H]1CC[C@H](C)CC1)C(=O)N1CCOCC1 [Compound 109, 5-(3,3-dimethylbut-1-ynyl)-3-[(trans-4-methylcyclohexanecarbonyl)-[(2R)-2-methyl-3-morpholino-3-oxo-propyl]amino]thiophene-2-carboxylic acid] | > 100 µM | < 100 nM | –
CC(C)[C@@H](C(=O)N1CCOCC1)N(c1cc(C#CC(C)(C)C)sc1C(=O)O)C(=O)[C@H]1CC[C@H](C)CC1 [Compound 85, 5-(3,3-Dimethylbut-1-ynyl)-3-[(trans-4-methylcyclohexanecarbonyl)-[(1S)-2-methyl-1-(morpholine-4-carbonyl)propyl]amino]thiophene-2-carboxylic acid] | 10 to 100 µM | < 100 nM | –
CC1CCC(C(=O)N(c2cc(C#CC(C)(C)C)sc2C(=O)O)[C@@H]2CCN(C)C2=O)CC1 (single isomer, unassigned) [Compound 92] | > 100 µM | < 100 nM | –
CC[C@@H](C(=O)N(C)C1CCOCC1)N(c1cc(C#CC(C)(C)C)sc1C(=O)O)C(=O)[C@H]1CC[C@H](C)CC1 [Compound 81, 5-(3,3-Dimethylbut-1-ynyl)-3-[(trans-4-methylcyclohexanecarbonyl)-[(1S)-1-[methyl(tetrahydropyran-4-yl)carbamoyl]propyl]amino]thiophene-2-carboxylic acid] | 10 to 100 µM | < 100 nM | –
CC[C@@H](C(=O)N1CCOCC1)N(c1cc(C#CC(C)C)sc1C(=O)O)C(=O)[C@H]1CC[C@H](C)CC1 [Compound 90, 5-(3-Methylbut-1-ynyl)-3-[(trans-4-methylcyclohexanecarbonyl)-[(1S)-1-(morpholine-4-carbonyl)propyl]amino]thiophene-2-carboxylic acid] | > 100 µM | < 100 nM | –
CC[C@@H](C(=O)N1CCCOCC1)N(c1cc(C#CC(C)(C)C)sc1C(=O)O)C(=O)[C@H]1CC[C@H](C)CC1 [Compound 84, 5-(3,3-Dimethylbut-1-ynyl)-3-[(trans-4-methylcyclohexanecarbonyl)-[(1S)-1-(1,4-oxazepane-4-carbonyl)propyl]amino]thiophene-2-carboxylic acid] | 10 to 100 µM | < 100 nM | –
C[C@@H](CC(=O)N(C)C1CCN(C)CC1)N(c1cc(C#CC(C)(C)C)sc1C(=O)O)C(=O)[C@H]1CC[C@H](C)CC1 [Compound 113, 5-(3,3-Dimethylbut-1-ynyl)-3-[(trans-4-methylcyclohexanecarbonyl)-[(1S)-1-methyl-3-[methyl-(1-methyl-4-piperidyl)amino]-3-oxo-propyl]amino]thiophene-2-carboxylic acid] | > 100 µM | < 100 nM | –
COCCN1CCC[C@H](N(c2cc(C#CC(C)(C)C)sc2C(=O)O)C(=O)[C@H]2CC[C@H](C)CC2)C1=O [Compound 150, (S)-5-(3,3-Dimethylbut-1-ynyl)-3-((trans)-4-methyl-N-(1-(2-methoxyethyl)-2-oxopiperidin-3-yl)cyclohexanecarboxamido)thiophene-2-carboxylic acid] | > 100 µM | – | < 100 nM
COC1CCCN(C(=O)[C@H](C)N(c2cc(C#CC(C)(C)C)sc2C(=O)O)C(=O)[C@H]2CC[C@H](C)CC2)C1 (stereo partly drawn) [Compound 40, 5-(3,3-Dimethylbut-1-ynyl)-3-[[(1S)-2-(3-methoxy-1-piperidyl)-1-methyl-2-oxo-ethyl]-(trans-4-methylcyclohexanecarbonyl)amino]thiophene-2-carboxylic acid] | > 100 µM | < 100 nM | –
